This data set in a line: Cytotoxicity activity against human HepG2 cells assessed by CellTiter-Glo luminescent cell viability assay. The class given is toxicity, cell-based. On the set-up: assay stage confirmatory assay, source tissue liver. The note with it: HepG2 cells, read-out: IC50 relative.

The structures appear in SMILES notation. Activity calls are given as the source filed them. The rule behind the calls is not given here.

As for `CCCCN(CC)CCCNC(=O)c1cc2c(=O)n(C)c3ccccc3c2n1C`, the CC50 was 11.8 µM (active). For `Cc1cccc(N2CCN(C(=O)C3CCCN(S(=O)(=O)c4ccc5c(c4)oc(=O)n5C)C3)CC2)c1C` (centres undefined), the CC50 is 6.1 µM (active).

Consider `CCN(CC)C(=O)c1sc2[nH]c(-c3ccccn3)nc(=O)c2c1C`, for which the CC50 is 6 µM (active).

Regarding `O=C(NO)c1ccc(I)cc1`, the CC50 was 12.2 µM (active). In the case of `O=C(Cn1ncc(Cl)c(Cl)c1=O)N(Cc1ccco1)CC(F)(F)F`, the CC50 is 6.6 µM (active). For the compound `O=C(Nc1nc(-c2ccccn2)cs1)c1ccc(-n2cncn2)cc1`, the CC50 is 1.5 µM (active). Next, `COCCN1COc2c(cc(Cl)c3cccnc23)C1`: 7.5 µM (active); `CN(C)c1ccnc(CNC(=O)Nc2ncc(C(F)(F)F)s2)c1`: 0.6 µM (active). On to `Cc1cccc2cc(C(=O)Nc3ccc(N4CCN(C)CC4)cn3)oc12`, for which the CC50 was 12.6 µM (active). In the case of `O=C(Cc1cccc(F)c1)Nc1cccc2ncccc12`, the CC50 was 14.5 µM (inactive). Then `COc1cc(CNc2cc(C)nc(N)n2)ccc1C`, with 6.7 µM (active); and `CC(C)n1ncnc1NC(=O)c1cccc(C(F)(F)F)c1O`, with 5.6 µM (active); and `O=c1[nH]ncc(NCc2ccc(OC[C@H]3CCCO3)cc2)c1Cl`, with 4.2 µM (inactive). As to `O=C(Nc1cc(Cl)cc2cccnc12)c1ccoc1`, the CC50 was 0.3 µM (active). For `COC1(C(=O)N2CCO[C@H](c3ccccc3C)C2)CS(=O)(=O)C1`, the CC50 is 8.6 µM (active).

In the case of `O=S(=O)(c1c[nH]cn1)N1CCNC[C@H]1c1cccc(Cl)c1`, the CC50 was 50 µM (inactive). For `O=C(Nc1nc2ccccc2[nH]1)c1ccc(-n2cccn2)cc1`, the CC50 was 48.2 µM (inactive). For `NCCn1cc(C(=O)N2CCN(Cc3ccc(Br)s3)CC2)nn1`, the CC50 is 7.4 µM (active).

As to `CC[C@H]1CC[C@@H](C)N(C(=O)c2nc(C3CC3)n3ccccc23)C1`, the CC50 is 7.5 µM (active). As for `O=c1[nH]c(Cc2ccc(-n3cccn3)cc2)nc2ccccc12`, the CC50 was 2.1 µM (active).

Consider `CCN(C)C[C@H]1CCN(CCCC2CCCCC2)C1`, for which the CC50 is 4.5 µM (active).

`Cc1cc(SCC#N)n2ncc(-c3ccccc3)c2n1`: the CC50 is 0.9 µM (active). For the compound `COc1cc(OC)c(OC)cc1CNC(=O)c1cccc2cccnc12`, the CC50 was 12 µM (inactive).

Take `COc1cc(OC)cc(C(=O)NCc2nc3ncc(Br)cc3[nH]2)c1`: the CC50 was 3.7 µM (active).

Regarding `CCCCc1cc(NC(=O)[C@H]2CC(=O)N(Cc3ccccc3)C2)[nH]n1`, the CC50 was 1.8 µM (active).

In the case of `COc1ccc(C(=O)Nc2ccncc2)cc1S(=O)(=O)N(C)Cc1ccccc1`, the CC50 is 10.3 µM (active). With `Cc1cc(C(=O)Nc2ccccn2)c2ccccc2n1`, the CC50 is 2.1 µM (active). For `CN(C)CCNC(=O)Cn1c(Cc2ccccc2)nn(-c2ccc(Cl)cc2)c1=O`, the CC50 is 11.7 µM (active). In the case of `O=c1c2ccccc2sn1CN1CCN(c2ccc(C(F)(F)F)cn2)CC1`, the CC50 was 8.6 µM (active). For `NC(=O)c1coc(-c2csc(-c3ccccc3O)n2)c1`, the CC50 is 2.5 µM (active). As to `CCc1ccc(-c2cc(C(=O)N3C[C@H]4CC[C@@H]3CN(C)C4)[nH]n2)cc1`, the CC50 was 13.9 µM (inactive). Turning to `Cc1nc(NC(=O)c2ccc(C)c(Br)c2)n(C)n1`, the CC50 is 11.7 µM (active). For the compound `CNC(=O)c1nnn(-c2ccc3ncccc3c2)c1C`, the CC50 is 2.2 µM (active). For `CC1(C)CCCN(c2ccnc(N[C@H]3CCCOCC3)n2)C1`, the CC50 is 8 µM (active). Next, `Cn1cncc1C(=O)N1CCCN(Cc2ccccc2)c2ccccc21`: 11.5 µM (inactive); `Cc1cc(N2CCN([C@@H](C)c3nc(C(C)(C)C)no3)CC2)nc(C(C)C)n1`: 11.9 µM (active); `Cn1c(NC(=O)c2cccc3cc[nH]c23)nc2ccccc21`: 2.3 µM (active).

With `COc1cc(F)ccc1NC(=O)c1ccc(-c2ccccn2)[nH]c1=O`, the CC50 was 11 µM (active). On to `CCN(c1ccccc1C)S(=O)(=O)c1cn(C)nn1`, for which the CC50 was 19.9 µM (inactive).

Take `COc1ccc(-c2nc(CN3CCN(C(=O)c4ccc5c(c4)OCO5)CC3)cs2)cc1`: the CC50 was 7.8 µM (active).

As to `Cc1cc(C(=O)Nc2cccc(N(C)C(=O)c3coc(C)c3)c2)co1`, the CC50 was 1.3 µM (active).

With `CNc1snc(C)c1C(=O)N[C@@H](C)c1ccc2c(c1)OCCCO2`, the CC50 is 4.2 µM (active). As to `Cc1cccc2nc(C(=O)Nc3ccc4c(c3)OC3(CCCC3)O4)cn12`, the CC50 is 11.9 µM (active). As for `COc1ccc(C)cc1CN(C)C(=O)CCN1C(=O)COc2ccccc21`, the CC50 was 5.1 µM (inactive). Consider `O=C(c1cccc2cnccc12)N1CCc2c(nc(-c3ccccc3)[nH]c2=O)C1`, for which the CC50 was 1.5 µM (active). `COc1ccc(S(=O)(=O)N2CCN(C(=O)c3ccc(-c4ccc(C(C)=O)cc4)o3)CC2)cc1OC`: the CC50 was 8.5 µM (active). Take `COc1cc(-c2ccccc2)sc1C(=O)NC1CC1`: the CC50 is 13.4 µM (active). Then `COc1ccc(CN(CC(=O)c2c(N)n(C)c(=O)n(C)c2=O)[C@@H](C)Cc2cccs2)cc1`, with 7.2 µM (active); and `O=C(Cn1ncc(Cl)c(Cl)c1=O)NCCC1=CCCCC1`, with 4.4 µM (active). Consider `CN(C)C1CCN(CCNC(=O)Nc2ccc(C3CC3)c(F)c2)CC1`, for which the CC50 is 4.5 µM (active). In the case of `O=C(NCc1ccc(-n2ccnc2)nc1)c1ccnc(O[C@H]2CCOC2)c1`, the CC50 is 8.9 µM (active). On to `COc1ccc2c(c1)OC(C)(C)CN(C(=O)Nc1nc(C)no1)C2`, for which the CC50 is 11.9 µM (active). On to `CCCc1cnc(NC(=O)CCc2nnc(-c3ccsc3)o2)s1`, for which the CC50 is 8.5 µM (active). Next, `COc1ccc(-n2ccc(CNc3ncnc(N)c3Cl)n2)cc1`: 3.1 µM (active); `CCc1nccn1[C@H]1CCCN(CCOc2ccc(OC)cc2)C1`: 4.1 µM (active); `O=C(Nc1nc(-c2ccco2)cs1)c1cccnc1N1CCOCC1`: 1.6 µM (active).

For `c1ccc2c(OCCN3CCC(N4CCCCC4)CC3)cccc2c1`, the CC50 is 6.4 µM (active). Next, `N#Cc1cnn(C(=O)c2ccc(OCc3ccccc3)cc2)c1N`: 6.1 µM (inactive). Then `Fc1cccc(N2CCCC2)c1CNc1nccc(N[C@H]2CCCOC2)n1`, with 6.5 µM (active); and `Cc1ccc(CN2CCN(C3CCNC3)CC2)c(Cl)c1Cl` (centres undefined), with 7.7 µM (active); and `Cc1cc(C)cc(-n2ncc3c(OCC(=O)N4CCN(C(=O)c5ccco5)CC4)ncnc32)c1`, with 3.6 µM (active). Take `Cc1cccc(N2CCN(CC(=O)c3c(N)n(CC(C)C)c(=O)n(C)c3=O)CC2)c1C`: the CC50 is 10.7 µM (active). `COc1ccc(C(=O)Nc2ccc(OC3CCN(C)CC3)cc2)c(OC)n1`: the CC50 is 13.4 µM (active).

Consider `COc1ccc(C(=O)N2CCCN(CCc3nc4ccccc4n3C)CC2)cc1`, for which the CC50 is 11.3 µM (inactive). As for `CCOc1ccc(NC(=O)C2CCN(S(=O)(=O)c3ccc4c(c3)OCCCO4)CC2)cc1`, the CC50 was 50 µM (inactive). As for `Cc1noc2ncnc(N3CCC(C(=O)N4CCN(c5cccc(Cl)c5)CC4)CC3)c12`, the CC50 is 9.6 µM (active).

`N#Cc1ccc(NC(=O)Cn2c(=O)ccn(Cc3ccccc3)c2=O)cc1`: the CC50 is 13.9 µM (inactive). With `COc1ccc2nc(NC(=O)N(C)Cc3nc(C)cs3)sc2c1`, the CC50 was 12.7 µM (inactive). Turning to `CC(=O)c1ccc(-c2ccc(C(=O)Nc3ncc(C)o3)o2)cc1`, the CC50 is 4.2 µM (active). On to `CCC1(N(C)C)CCN(c2nc(N)c3cc(OC)c(OC)cc3n2)CC1`, for which the CC50 is 11.2 µM (active). Take `O=C(Nc1ccnc2ccnn12)c1cc2ccccc2c(=O)[nH]1`: the CC50 was 0.1 µM (active). Regarding `Cc1cccc2nc(C(=O)Nc3cccc4cccnc34)cn12`, the CC50 is 0.1 µM (active).

Regarding `Cc1occc1-c1cc(NC(=O)N2CCC[C@H]2c2cccn2C)no1`, the CC50 was 1.1 µM (active). `Cc1ccc([C@H](C)N(C)C(=O)Nc2cc(C(C)C)n[nH]2)cc1`: the CC50 was 5 µM (active). For `CC(C)(C)c1nccc(NC(=O)c2ccc(F)c(C#N)c2)n1`, the CC50 was 1.2 µM (active). `CCN(CC)S(=O)(=O)c1ccc(C(=O)Cn2ncc(Cl)c(Cl)c2=O)cc1`: the CC50 was 2 µM (active). In the case of `NC(=O)c1cnc(NC(=O)c2cccc(S(=O)(=O)N3CCN(c4ccccc4)CC3)c2)s1`, the CC50 was 37.1 µM (inactive). Take `COc1ccc(-c2noc(=O)n2Cc2ncc(C)c(OC)c2C)cc1OC`: the CC50 was 6.2 µM (active). Then `Cc1nc(-c2ccccn2)sc1C(=O)Nc1ccccc1O`, with 2.8 µM (active).

For the compound `Cc1cc(NC(=O)CN2CCCC[C@@H]2C)n(C)n1`, the CC50 was 50 µM (inactive). As for `Cc1ccc(NCc2cc(=O)n3c(C)csc3n2)c(F)c1`, the CC50 was 7.2 µM (active). As for `CCn1c(NC(=O)c2ccc(OC)c(OC)c2)nc2cc(C#N)ccc21`, the CC50 was 2.3 µM (active). Turning to `NCC[C@H](N)C(=O)N1CCC2(CCC(=O)N(Cc3ccccc3)C2)CC1`, the CC50 was 11.5 µM (active). Next, `c1cc2c(cc1C1=NN=C(NC3CC3)SC1)OCO2`: 9.1 µM (active); `COc1ccc(C)cc1CN(C)C(=O)CCn1c(=O)[nH]c(=O)c2ccccc21`: 0.2 µM (active). As to `CCN1C[C@H](CN(C)CC(=O)c2c(N)n(C3CC3)c(=O)[nH]c2=O)Oc2ccccc21`, the CC50 is 13.8 µM (inactive).

In the case of `O=C(Nc1nccs1)c1cccc(S(=O)(=O)N2CCc3ccccc32)c1`, the CC50 was 8.3 µM (active). Then `Cc1ccccc1N1CCN(C(=O)C2CCN(S(=O)(=O)c3ccc4c(c3)OCCCO4)CC2)CC1`, with 1.7 µM (active); and `Cc1ccc(CC(=O)N2CCN(C(=O)[C@@H]3CCCCO3)CC2)cc1`, with 0.6 µM (active).

Source of the values: ChEMBL document CHEMBL5303711, “ECBD screening data for assay EOS300108” (2023).
